From patent US20230414762A1, “PROSTATE-SPECIFIC MEMBRANE ANTIGEN (PSMA)-TARGETED PRODRUG FOR SELECTIVE KILLING OF CELLS […]” (The Johns Hopkins University, priority 2020, published 2023)
Where “and” joins values, the source holds several entries; their conditions need not be identical. Identical values can stand only once. Entries after “also recorded” stand apart in the source; their conditions may differ. Starred links: 1 amine or outer side, 2 acyl side, 3 side chain; linkers in the order of their positions; H or OH if unused. Non-standard residues stand in square brackets, D forms with d. Residues, ends and D or L forms follow the SMILES beside them. *: point of attachment. X1 = O=C(O)CC[C@H](NC(=O)N[C@@H](CCCCNC(=O)CCCCCCC(=O)*)C(=O)O)C(=O)O; Dolaproine = CO[C@@H]([C@@H]1CCCN1)[C@@H](C)C(=O)O; Dil = CC[C@H](C)[C@H](NC)[C@@H](CC(=O)O)OC; PABC = O=C(OCc1ccc(N[*:1])cc1)[*:2]; X2 = C[C@@H](N*)[C@@H](O)c1ccccc1; Cit = NC(=O)NCCC[C@H](N)C(=O)O; NMeV = CN[C@H](C(=O)O)C(C)C

Legend:
[1] = Serum stability in murine serum (HPLC); type: in vitro ADME, mouse
Protocol: Serum stability of prodrugs was analyzed using a modified method from previously published work. Chu et al., 2012. Prodrug stock solution (8 μL, 10 mM) was incubated with 100% mouse serum (final concentration of the serum was 80% after the mixing with prodrug solution) at 37° C. Aliquots (50 μL) were periodically removed at 2, 4, 8, 24, and 48 h, and diluted with cold ice CH3OH (100 μL) to precipitate proteins. The samples were centrifuged, and the supernatants were analyzed by HPLC. Stability was calculated based on the peak area of the prodrug at each time point. Experiments were performed in triplicate.

[2] = Blood chemistry in healthy mice; type: in vivo; details: C57BL/6 mice
Protocol: (§1) The potential toxicity of SBPD-1 was evaluated in immunocompetent animals. MMAE (80 μg/kg), SBPD-1 (160 μg/kg), and 5% DMSO were administered to healthy C57BL/6 mice (n=5). Animals were monitored for 80 days after initiation of administration. […] Lung, liver, kidneys, salivary and lacrimal glands were removed from all tested animals at Day 80 after initiation of SBPD-1 treatment. […] Peripheral blood also was obtained from mice injected with vehicle, SBPD-1, and healthy untreated animals, and prepared serum for chemistry studies (n=5).
(§2) Male C57BL/6 mice were purchased from Jackson Laboratory. Ten-week-old mice were injected with the indicated doses of MMAE (formulated in 5% DMSO), SBPD-1 (formulated in saline) or 5% DMSO intraperitoneally (daily for 30 days, n=5). Animals were monitored daily for weight changes and other abnormalities for 80 days. Animals were euthanized in a CO2 chamber at day 80, and blood, lung, liver, kidney, salivary gland, and lacrimal gland were collected for complete blood counts, blood chemistry, and histopathological analyses. Complete blood counts including white blood cells (WBC), red blood cells (RBC), hemoglobin (HGB), hematocrit (HCT), mean corpuscular volume (MCV), mean corpuscular hemoglobin (MCH), mean corpuscular hemoglobin concentration (MCHC), and platelet (PLT) were measured using scil Vet ABC™ Hematology Analyzer (scil animal care company, Gurnee, IL). Blood chemistry parameters including blood urea nitrogen (BUN), glucose (GLU), Alkaline Phosphatase (ALP), total protein (T-Pro), Alanine aminotransferase (ALT) and Creatinine (Cre) were measured with Spotchem EZ chemistry analyzer (Arkray USA, Edina, MN). Hematoxylin and eosin slides were generated for five organs and examined by certified veterinary pathologist.

[3] = Serum stability in human serum; type: in vitro ADME
Protocol: Prior to in vivo potency, the stability of SBPD-1 and SBPD-2 in murine serum was evaluated. While 90% of SBPD-2 remained intact for 48 h in murine serum (FIG. 3a), SBPD-1 was metabolized more quickly in murine serum (FIG. 3a). […] SBPD-1, however, was stable in human serum (FIG. 3a). It has been reported that the valine-citrulline linker is stable in human and monkey serum, but that it can be hydrolyzed in mouse plasma via extracellular carboxylesterase 1c. Dorywalska et al., 2016; Anami et al., 2018. Based on those stability results, small, fractionated doses were applied for the murine efficacy study to avoid systemic toxicity that could affect the overall survival of the test animals.

[4] = In vivo toxicity in healthy mice (weight, survival, histopathology); parameters: species or system C57BL/6 mice
Protocol: as §1, §2

[5] = Complete blood count in healthy mice; type: in vivo; details: C57BL/6 mice, 0.16 mg/kg
Protocol: as §2

[6] = test system: PSMA− PC3 flu tumors; assay: Subcutaneous xenograft efficacy, PSMA- PC3 flu tumors; type: in vivo, NSG mice
[7] = molecular target: T1, recombinant cathepsin B (Homo sapiens, UniProt P07858); assay: Release of MMAE from prodrug by recombinant cathepsin B; type: biochemical; details: within 3 h of incubation with recombinant cathepsin B
T1 construct: purchased MilliporeSigma C8571
Protocol: Release of MMAE from prodrugs by a recombinant cathepsin B was analyzed using a modified method from previously published work. Dubowchik et al., 2002. Prodrug stock solutions (8 μL, 10 mM) were added to the 2 mL cathepsin B (MilliporeSigma, Cat #C8571, Burlington, MA, USA) containing buffer (25 mM acetate, 1 mM EDTA, pH 5, pre-warmed at 37° C.) at the final concentration of 30 nM (cathepsin B) and 40 μM (prodrug). Aliquots (200 μL) were periodically removed and enzymatic activity was stopped by the addition of thioprotease inhibitor E-64 (30 nM in the final solution, MilliporeSigma, Cat #E3132). The samples were centrifuged and the supernatants were analyzed by HPLC (Waters 600 E coupled with Varian prostar detector, Milford, MA, USA). Samples were prepared at 0, 10, 20, 30, 60, 90, and 120 min. Experiments were performed in triplicate.

[8] = test system: PSMA+PC3 PIP tumors; assay: Subcutaneous xenograft efficacy, PSMA+ PC3 PIP tumors; type: in vivo, NSG mice; details: for median survival time: 4-fold tumor volume scored as death
[9] = test system: PSMA+PC3/ML/PSMA cells; assay: Experimental metastatic model of PSMA-expressing PC
Protocol: A PSMA-expressing experimental metastatic model of human PC was used to evaluate efficacy of SBPD-1 on established metastatic tumors. […] PSMA+PC3/ML/PSMA cells were administered to NSG mice intravenously (IV) and tumors were allowed to establish for four weeks. PC3/ML/PSMA cells express firefly luciferase as an imaging reporter to allow tumor development to be monitored via weekly bioluminescence imaging (BLI).
For the metastatic model, NSG mice were injected with 0.75 million PC3/ML/PSMA cells via the tail vein. […] BLI was performed weekly using the IVIS Spectrum in vivo imaging system (Perkin Elmer, Waltham, MA).

[10] = Urinalyses from subcutaneous xenograft model (urine reagent strips); details: for urine protein / urine specific gravity: individual mice
[11] = test system: PSMA+ PC3 PIP cells; assay: In vitro cytotoxicity (XTT cell proliferation assay), PSMA+ PC3 PIP cells; type: cell-based, human
[12] = test system: PSMA− PC3 flu cells; assay: In vitro cytotoxicity (XTT cell proliferation assay), PSMA- PC3 flu cells; type: cell-based, human

SMILES: CC[C@H](C)[C@@H]([C@@H](CC(=O)N1CCC[C@H]1[C@H](OC)[C@@H](C)C(=O)N[C@H](C)[C@@H](O)c1ccccc1)OC)N(C)C(=O)[C@@H](NC(=O)[C@H](C(C)C)N(C)C(=O)OCc1ccc(NC(=O)[C@H](CCCNC(N)=O)NC(=O)[C@@H](NC(=O)CCCCCCC(=O)NCCCC[C@H](NC(=O)N[C@@H](CCC(=O)O)C(=O)O)C(=O)O)C(C)C)cc1)C(C)C [SBPD-1, (6S,9S,24S,28S)-1-Amino-6-((4-((5S,8S,11S,12R)-11-((S)-sec-butyl)-12-(2-((S)-2-((1R,2R)-3-(((1S,2R)-1-hydroxy-1-phenylpropan-2-yl)amino)-1-methoxy-2-methyl-3-oxopropyl)pyrrolidin-1-yl)-2-oxoethyl)-5,8-diisopropyl-4,10-dimethyl-3,6,9-trioxo-2,13-dioxa-4,7,10-triazatetradecyl)phenyl)carbamoyl)-9-isopropyl-1,8,11,18,26-pentaoxo-2,7,10,19,25,27-hexaazatriacontane-24,28,30-tricarboxylic acid] (X1-V[Cit][PABC][NMeV]V[Dil][Dolaproine]-X2)
- intact in serum ([1]; 8 h of incubation): more than 80%
- fraction representing parent compound ([1]; 24 h): less than half
- degradation of prodrug ([1]; by 48 h of incubation): the majority of the prodrug was fully degraded
- BUN, creatinine, glucose, ALP, T-Pro, ALT compared with untreated mice ([2]; 160 μg/kg): did not show differences
- ALP ([2]; 0.16 mg/kg, individual mice): 94 IU/L (2×) and 108 IU/L and 96 IU/L and 85 IU/L
- ALT ([2]; 0.16 mg/kg, individual mice): 21 IU/L and 31 IU/L and 22 IU/L and 14 IU/L and 28 IU/L
- BUN ([2]; 0.16 mg/kg, individual mice): 28 mg/dl (2×) and 37 mg/dl (2×) and 27 mg/dl
- Cre ([2]; 0.16 mg/kg, individual mice): 1 mg/dl and 1.2 mg/dl and 1.1 mg/dl (2×) and 0.8 mg/dl
- GLU ([2]; 0.16 mg/kg, individual mice): 188 mg/dL and 248 mg/dL and 285 mg/dL and 219 mg/dL and 189 mg/dL
- T-Pro ([2]; 0.16 mg/kg, individual mice): 6.1 g/dl and 6.2 g/dl and 5.9 g/dl (2×) and 6 g/dl
- stability in human serum [3]: stable
- histopathological examination of lung, liver, kidneys, salivary and lacrimal glands ([4]; Day 80 after initiation of treatment, 160 μg/kg): no tissue damage
- signs of toxicity / weight ([4]; healthy C57BL/6 mice, 160 μg/kg IP daily for 30 days, monitored 80 days): did not show any signs of toxicity; also recorded: did not induce toxicity
- complete blood counts, abnormalities [5]: no abnormalities except for lower white blood cell count
- HCT ([5]; individual mice): 36% and 36.6% and 32.2% and 35.6% and 35.8%
- HGB ([5]; individual mice): 13.4 g/dl (2×) and 13.8 g/dl and 12.4 g/dl and 14 g/dl
- MCH ([5]; individual mice): 33.8 pg (3×) and 35 pg and 34.8 pg
- MCHC ([5]; individual mice): 75.8 g/dl (3×) and 76.4 g/dl and 78.2 g/dl
- MCV ([5]; individual mice): 90 μm^3 (4×) and 92 μm^3
- PLT ([5]; individual mice): 1280 10^3/mm^3 (2×) and 1068 10^3/mm^3 and 1132 10^3/mm^3 and 1262 10^3/mm^3
- RBC ([5]; individual mice): 8.08 10^6/mm^3 and 8.16 10^6/mm^3 and 7.02 10^6/mm^3 and 7.98 10^6/mm^3 and 8.02 10^6/mm^3
- WBC ([5]; individual mice): 1.6 10^3/mm^3 (2×) and 1.8 10^3/mm^3 and 1.4 10^3/mm^3 and 2 10^3/mm^3
- median survival time ([6]; 20 μg/kg daily IP for 30 days): 15 days
- median survival time ([6]; 40 μg/kg daily IP for 30 days): 15 days
- median survival time ([6]; 80 μg/kg daily IP for 30 days): 20 days
- MMAE released [7]: 80%
- median survival time ([8]; 20 μg/kg daily IP for 30 days): 17 days
- time until previously undetectable tumors could be re-measured ([8]; 40 μg/kg): Approximately one week
- median survival time ([8]; 40 μg/kg daily IP for 30 days): 54 days
- time until re-appearance of tumors ([8]; 80 μg/kg): Two weeks
- median survival time ([8]; 80 μg/kg daily IP for 30 days): 69 days
- tumors at completion of treatment ([8]; doses of 40 and 80 μg/kg): undetectable
- median survival ([9]; 40 μg/kg daily IP for 30 days): 47 days
- median survival ([9]; 80 μg/kg daily IP for 30 days): 56 days
- median survival ([9]; 160 μg/kg daily IP for 30 days): 58 days
- urine protein ([10]; Day 9, PC3/PIP, 0.02 mg/kg): 30
- urine specific gravity ([10]; Day 9, PC3/PIP, 0.02 mg/kg): 1.025 (3×) and 1.02 (2×)
- urine protein ([10]; Day 9, PC3/PIP, 0.04 mg/kg): 30 (3×) and trace (2×)
- urine specific gravity ([10]; Day 9, PC3/PIP, 0.04 mg/kg): 1.025
- urine protein ([10]; Day 9, PC3/PIP, 0.08 mg/kg): trace and 30 (4×)
- urine specific gravity ([10]; Day 9, PC3/PIP, 0.08 mg/kg): 1.025
- urine protein ([10]; Day 9, PC3/flu, 0.02 mg/kg): 30
- urine specific gravity ([10]; Day 9, PC3/flu, 0.02 mg/kg): 1.025 (4×) and 1.02
- urine protein ([10]; Day 9, PC3/flu, 0.04 mg/kg): 30
- urine specific gravity ([10]; Day 9, PC3/flu, 0.04 mg/kg): 1.025
- urine protein ([10]; Day 9, PC3/flu, 0.08 mg/kg): 300 (2×) and 30 (2×) and 100
- urine specific gravity ([10]; Day 9, PC3/flu, 0.08 mg/kg): 1.025
- urine protein ([10]; Day 20, PC3/PIP, 0.02 mg/kg): 30
- urine specific gravity ([10]; Day 20, PC3/PIP, 0.02 mg/kg): 1.025
- urine protein ([10]; Day 20, PC3/PIP, 0.04 mg/kg): 30
- urine specific gravity ([10]; Day 20, PC3/PIP, 0.04 mg/kg): 1.025
- urine protein ([10]; Day 20, PC3/PIP, 0.08 mg/kg): 30 (3×) and 100 (2×)
- urine specific gravity ([10]; Day 20, PC3/PIP, 0.08 mg/kg): 1.025
- urine protein ([10]; Day 20, PC3/flu, 0.02 mg/kg): 30
- urine specific gravity ([10]; Day 20, PC3/flu, 0.02 mg/kg): 1.025 (3×) and 1.01 and 1.03
- urine protein ([10]; Day 20, PC3/flu, 0.04 mg/kg): 30
- urine specific gravity ([10]; Day 20, PC3/flu, 0.04 mg/kg): 1.025 (2×) and 1.03 (2×)
- urine protein ([10]; Day 20, PC3/flu, 0.08 mg/kg): 300 (2×) and 30 (3×)
- urine specific gravity ([10]; Day 20, PC3/flu, 0.08 mg/kg): 1.025
- urine protein level and specific gravity (acute renal toxicity) ([10]; all test animals, Days 9 and 20, any dose tested): normal

SMILES: CC[C@H](C)[C@@H]([C@@H](CC(=O)N1CCC[C@H]1[C@H](OC)[C@@H](C)C(=O)N[C@H](C)[C@@H](O)c1ccccc1)OC)N(C)C(=O)[C@@H](NC(=O)[C@@H](NC)C(C)C)C(C)C [MMAE, monomethyl auristatin E] (H-[NMeV]V[Dil][Dolaproine]-X2)
- toxicity (weight loss, euthanasia) ([4]; healthy C57BL/6 mice, MMAE (free drug) 80 μg/kg IP daily for 30 days): severe toxicity
- IC50 [11]: 0.0392 nM
- IC50 [12]: 0.04 nM
